Laboratory results: patent EP1806135A2, “The use of a protein tyrosine inhibitor such as genistein in the treatment of diabetic retinopathy or ocular inflammation” (THE JOHNS HOPKINS UNIVERSITY SCHOOL OF MEDICINE, priority 1998, dated 1999)

Legend:
MAPK = experiment: Western immunoblot analysis of immunoprecipitated tyrosine phosphorylated proteins in the retina: MAPK; assay type: in vivo, Zucker diabetic fatty rat; conditions: 50 mg/kg intraperitoneally, repeated after two hours; treated group compared with the non-treated animals group
From the text: (§1) Six pair of litter mates of Zucker rats, i.e., six male retired breeder Zucker diabetic fatty (ZDF, fa/fa) rats and six male retired breeder lean Zucker (fa/+) rats, were obtained (Genetic Models, Inc., Indianapolis, IN). The Zucker diabetic fatty rat develops a microvascular retinopathy involving basement membrane thickening of retinal capillaries, pericyte loss, capillary hypercellularity, and increased endothelial intercellular junctions (Danis et al., Invest. Ophthalmol. Vis. Sci. 34:2367-2371 (1993); and Dosso et al., Diabetologia 33:137-144 (1990)). The microvascular changes known to occur in the Zucker diabetic fatty rats are associated with the elevated levels of VEGF and platelet-derived growth factor (PDGF) and with activation of PTK pathways, especially pathways that include phosphatidylinositol-3 kinase (PI3-K) and mitogen-activated protein kinase (MAPK). […] The average blood glucose value was more than 500 mg/dl for the Zucker diabetic fatty rats and 120 mg/dl for the control lean rats as measured by glucose oxidase assay at the time of death (Danis et al. (1993), supra). […]
(§2) The retinal tissue samples were added to immunoprecipitation buffer (1 % Triton X-100, 150 mM NaCl, 10 mM Tris, pH 7.4, 1 mM EGTA, 0.2 mM sodium vanadate, 0.2 mM PMSF, 0.5 % NP-40) and homogenized. […] Protein concentrations were measured by the Pierce BCA method. […]

retina = experiment: Retinal toxicity by electroretinography after oral administration; assay type: in vivo; conditions: orally administered, 75 mg/kg/day to 300 mg/kg/day over a period of six months, Zucker diabetic fatty rats
From the text: (§3) An advantage of genistein is that it is very safe and efficacious. […] Also, no effect of orally administered genistein was found with respect to the weight of the ovaries and the uterus in female rats.

PCNA [1] = experiment: Immunohistochemical analysis of PCNA in the retina; assay type: in vivo; conditions: genistein treated diabetic rats compared with untreated Zucker diabetic fatty rats
Protocol: Two pairs of rats were used for immunohistochemical analysis of PCNA in the retina. Under deep anesthesia with ketamine and xylazine, the four rats were perfused transcardially with 0.1 M phosphate-buffered saline (PBS; pH 7.4) containing 1 mM orthovanadate, followed by perfusion of 2 % paraformaldehyde in 0.1 M PBS for fixation. The eyes were then removed and immersed in the same fixative for 30 min. The anterior segments were removed and the posterior segments were transferred into a graded sucrose solution from 5 % to 15 % for 2 hrs and incubated in 20 % sucrose solution overnight at 4°C. After cryoprotection, the eyes were molded in O.C.T. compound (Miles, Inc., Elkhart, IN) and frozen in isopentane with dry ice. The posterior segments were cut into 8 µm sections.
The sections were treated with 3 % peroxide to block intrinsic peroxidase, and incubated with 2 % normal horse serum for 20 min. After rinsing in 0.1 M PBS three times, the sections were incubated overnight at 4°C with anti-PCNA antibody (1:1,000 dilution). After the incubation, the sections were rinsed in 0.1 M PBS, and incubated with biotinylated anti-mouse IgG antibody (Vector Laboratories, Inc., Burlingame, CA; 1:500 dilution) for 30 min at room temperature, and then incubated with […] streptavidin (Kirkegaad & Perry Laboratories, Inc., Gaithersburg, MD; 1:500 dilution). […]

PCNA [2] = experiment: Western immunoblot analysis of PCNA in the retina; assay type: in vivo; conditions: 50 mg/kg intraperitoneally, repeated after two hours; Zucker diabetic fatty rat retina; not down to the lean control level
From the text: (§4) Six pair of litter mates of Zucker rats, i.e., six male retired breeder Zucker diabetic fatty (ZDF, fa/fa) rats and six male retired breeder lean Zucker (fa/+) rats, were obtained (Genetic Models, Inc., Indianapolis, IN). The Zucker diabetic fatty rat develops a microvascular retinopathy involving basement membrane thickening of retinal capillaries, pericyte loss, capillary hypercellularity, and increased endothelial intercellular junctions (Danis et al., Invest. Ophthalmol. Vis. Sci. 34:2367-2371 (1993); and Dosso et al., Diabetologia 33:137-144 (1990)). The microvascular changes known to occur in the Zucker diabetic fatty rats are associated with the elevated levels of VEGF and platelet-derived growth factor (PDGF) and with activation of PTK pathways, especially pathways that include phosphatidylinositol-3 kinase (PI3-K) and mitogen-activated protein kinase (MAPK). Each pair of litter mates was between six and seven months of age. Rats were fed with a diet of Purina 5008 rat chow. The animals were treated in accordance with The Association for Research in Vision and Ophthalmology (ARVO) Statement for the Use of Animals in Ophthalmic and Vision Research. The average blood glucose value was more than 500 mg/dl for the Zucker diabetic fatty rats and 120 mg/dl for the control lean rats as measured by glucose oxidase assay at the time of death (Danis et al. (1993), supra). […]

67 kDa band = experiment: Total protein profile of retinal homogenate (gel electrophoresis, Coomassie brilliant blue staining); assay type: in vivo; conditions: 50 mg/kg intraperitoneally, repeated after two hours; retina taken 24 hours later; Zucker diabetic fatty rat
From the text: as §1, with “(MAPK). Each pair of litter mates was between six and seven months of age. Rats were fed with a diet of Purina 5008 rat chow.” for “(MAPK).”
Protein concentrations were measured by the Pierce BCA method. […]

[3] = test system: tyrosine phosphorylated proteins; experiment: Western immunoblot analysis of tyrosine phosphorylated proteins in the retina; assay type: in vivo, Zucker diabetic fatty rat; conditions: 50 mg/kg intraperitoneally, repeated after two hours; diabetic rats compared with the non-treated group
From the text: as §4

PI3-K = experiment: Western immunoblot analysis of immunoprecipitated tyrosine phosphorylated proteins in the retina: PI3-K; assay type: in vivo, Zucker diabetic fatty rat; conditions: 50 mg/kg intraperitoneally, repeated after two hours; especially in the diabetic rat
From the text: as §1, §2

[4] = Food intake, body weight and organ weights after oral administration; assay type: in vivo, rats
From the text: as §3

pigmented rabbits = experiment: Ocular inflammation (vitreous cavity haze) after intravitreal injection of homologous dermal fibroblasts; assay type: in vivo, rabbit; conditions: graded 3 days after fibroblast injection
Protocol: The principles of laboratory animal care (NIH publication No. 86-23, revised 1985) were followed. For all studies, pigmented rabbits, weighing 2.5-3 kg were used. The animals were anesthetized with a cocktail of ketamine (25 mg/kg) and xylazine (5 mg/kg), and the pupils were dilated with topical 1 % tropicamide and 0.5% phenylephrine.
Vitreous liquefaction was caused by injection of SF6 gas. After an anterior chamber paracentesis (0.1 ml), pure SF6 gas (0.3 ml) was injected. The 30-gauge needle was inserted inferiorly in order to maximize the vitreous liquefaction.
Rabbit dermal fibroblasts were obtained from rabbit rump biopsy material prepared under sterile conditions: Primary cultures were incubated in Dulbecco's modified Eagle's medium (DMEM) with 30% calf serum, antibiotics (penicillin G sodium, streptomycin sulfate) and antimycotics (amphotericin B) under a humid atmosphere of 5% carbon dioxide in air for 72 hours. The medium was then changed to DMEM with 10% calf serum, antibiotics and antimycotics as above. The cultures were passaged weekly. Cells were harvested by incubating them with 3.5 ml of 0.04% trypsin for 4 minutes and collecting the cells in stop media. The dispersed cells were centrifuged at 1,000 rpm for 5 minutes and resuspended in 1 ml of phosphate-buffered saline. After cell counts of a 0.05 ml aliquot, the suspension was diluted to achieve a final concentration of 2.5x10^4 cells in a 0.1 ml of phosphate-buffered saline.
Fourteen days after the injection of SF6 gas, a 30-gauge needle was inserted 3 mm posterior to the corneoscleral limbus in the superonasal quadrant under microscopic control. With the bevel of the needle directed upward, 2.5x10^4 homologous rabbit dermal fibroblasts suspended in 0.1 ml sterile phosphate-buffered saline were injected just in front of the optic nerve head. This was performed in both eyes of all rabbits. The rabbits were immediately placed on their backs for 1 hour to allow the cells to settle over the vitreous surface. […]

[5] = oral administration, male and female rats
[6] = orally administered, female rats

| SMILES | level of tyrosine phosphorylated MAPK at 44 kDa (MAPK) | toxicity to the retina as measured by electroretinography (retina) | PCNA immunopositive cells in the retina (PCNA [1]) | level of PCNA at 36 kDa (PCNA [2]) | amount of staining of the 67 kDa band in total protein profiles (67 kDa band) | staining of tyrosine phosphorylated proteins at 50, 66, 97 and 116 kDa [3] | tyrosine phosphorylated PI3-K stained band at 85 kDa (PI3-K) | body weight [4, 5] | food intake [4, 5] | weight of the ovaries [4, 6] | weight of the uterus [4, 6] | eyes with severe inflammation (vitreous haze) (pigmented rabbits; group 1: 23 µg intravitreally 1 hour (prophylactic) after fibroblast injection, control eyes 47.1%, p<0.01) [%] | eyes with severe inflammation (vitreous haze) (pigmented rabbits; group 2: 23 µg intravitreally 2 days (therapeutic) after fibroblast injection, control eyes 50%, p>0.05) [%] | eyes with severe inflammation (vitreous haze) (pigmented rabbits; group 3: 11.5 µg intravitreally at 1 hour and again 2 days after fibroblast injection, control eyes 77.8%, p<0.05) [%] |
| --- | --- | --- | --- | --- | --- | --- | --- | --- | --- | --- | --- | --- | --- | --- |
| O=c1c(-c2ccc(O)cc2)coc2cc(O)cc(O)c12 [genistein, 5,7-dihydroxy-3-(4-hydroxyphenyl)-4H-1-benzopyran-4-one] | decreased | nontoxic to the retina | fewer immunopositive cells were detected | reduced this increase | reduced | decreased staining at each molecular weight | reduced | no effect | no effect | no effect | no effect | – | – | – |
| COC1C=CC=C(C)C(=O)NC2=CC(=O)C=C(C2=O)C(OC)C(C)CC(OC)C(OC)C(C)C=C(C)C1OC(N)=O (centres unmarked) [HA, Herbimycin A] | – | – | – | – | – | – | – | – | – | – | – | 0 | 10 | 22.2 |
